Data on 2 compounds can be found in US20120149735A1, “1,4-Dihydropyridine Derivatives and Their Uses” (CENTRE HOSPITALIER REGIONAL UNIVERSITAIRE DE LILLE, priority 2009, published 2012).

In one data set the test system is TNBS-induced colitis. Briefly: TNBS-induced colitis in mice. The format is in vivo, C57B16 mice.
The next data set deals with T1, hCB2 receptor (Homo sapiens, UniProt P34972).
T1 construct: purchased PerkinElmer (Belgium)
Description: [35S]-GTPγS binding assay (CB2 functional activity assay). The format is biochemical. To be noted: for EC50: [35S]-GTPγS binding, hCB2. The procedure: The Emax value is determined by a CB2 functional activity assay (19, 20).
[^35S]-GTPγS binding Assays
[^35S]-GTPγS (1173 Ci/mmol) was purchased from Amersham (Roosendaal, The Netherlands). The binding experiments were performed at 30° C. in plastic tubes containing 40 μg protein in 0.5 mL (final volume) of binding buffer (50 mM Tris-HCl, 3 mM MgCl2, 1 mM EDTA, 100 mM NaCl, 0.1% bovine serum albumin, pH 7.4) supplemented with 20 μM GDP.
The assay was initiated by the addition of [^35S]-GTPγS (0.05 nM, final concentration). The tubes were incubated for 1 h. The incubations were terminated by the addition of 5 mL ice-cold washing buffer (50 mM Tris-HCl, 3 mM MgCl2, 1 mM EDTA, 100 mM NaCl). The suspension was immediately filtered through GF/B filters using a 48-well Brandell cell harvester and washed twice with the same ice-cold buffer. The radioactivity on the filters was counted as mentioned above. Assays were performed in triplicate.
(§1) IC50 and EC50 values were determined by non-linear regression analysis performed using the GraphPad prism 4.0 program (GraphPad Software, San Diego). The Ki values (expressed as pKi) were calculated based on the Cheng-Prusoff equation: Ki=IC50/(1+L/Kd). Statistical signification of [^35S]-GTPγS assay results was assessed using an one-way ANOVA followed by a Dunett post-test.

Data set [1] addresses T2, hCB2 cannabinoid receptor (Homo sapiens, UniProt P34972).
T2 construct: purchased PerkinElmer (Belgium)
Briefly: Competition binding assay, hCB2 membranes, [3H]-CP-55,940. As for the experimental part:
hCB1 and hCB2 membranes were purchased from PerkinElmer (Belgium). […] Glass fiber filters were purchased from Whatman (Maidstone, U.K.), while Aqualuma was from PerkinElmer (Schaesberg, The Netherlands). Stock solutions of the compounds were prepared in DMSO and further diluted […] with the binding buffer to the desired concentration. Final DMSO concentrations in the assay were less than 0.1%.
The test compounds were present at varying concentrations and the non-specific binding was determined in the presence of 10 μM HU-210. After 1 h the incubation was stopped and the solutions were rapidly filtered through 0.5% PEI pretreated GF/B glass fiber filters on a M-48T Brandell cell harvester and washed twice with 5 mL ice-cold binding buffer without serum albumin. […] Assays were performed at least in triplicate.
as §1

Where [2] appears, read: CB2 functional activity assay, basal = 100%, read-out: Emax, bound stated.
The mark [3] stands for this setting: percentage of stimulation of [35S]-GTPγS binding, basal value set at 100%, read-out: Functional activity at CB2 EMax.
Setting [4] is: hCB2 membranes, [3H]-CP-55,940 (1 nM), 30° C., 1 h, read-out: Ki CB2.

Where two headings read alike, the source gives them in different places.

T2 sequence (P34972 whole entry): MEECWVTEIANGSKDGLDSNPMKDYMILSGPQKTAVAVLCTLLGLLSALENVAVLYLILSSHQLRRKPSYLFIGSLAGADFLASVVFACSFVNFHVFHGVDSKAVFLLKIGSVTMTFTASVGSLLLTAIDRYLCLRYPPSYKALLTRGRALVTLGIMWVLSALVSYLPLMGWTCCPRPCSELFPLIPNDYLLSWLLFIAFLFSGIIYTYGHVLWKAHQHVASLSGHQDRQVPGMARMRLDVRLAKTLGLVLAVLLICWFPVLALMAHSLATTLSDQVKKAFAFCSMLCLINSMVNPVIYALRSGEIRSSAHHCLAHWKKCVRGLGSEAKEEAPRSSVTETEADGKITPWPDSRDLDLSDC
T1 sequence (P34972 whole entry): as above

The compound `CCCCCn1cc(C(=O)NC23CC4CC(CC(C4)C2)C3)c(=O)cc1C` [Compound 38, N3-(1-Adamantyl)-6-methyl-4-oxo-1-pentyl-1,4-dihydropyridine-3-carboxamide] came in with a melting point of 195 °C. The “MPO activity in colon (neutrophils content)” value in the data set with TNBS-induced colitis (TNBS only 20±5) is given as 14±4. For the same compound, the “TNF-alpha mRNA expression in colon” value with TNBS-induced colitis (TNBS only 26±8) came to 18±4. Besides, the “IL-1beta mRNA expression in colon” value in the data set on TNBS-induced colitis (TNBS only 1610±1041) is 385±192. In addition, the “colitis macroscopic score (Wallace criteria, scale 0 to 10)” value in the data set on TNBS-induced colitis (intraperitoneally once daily from 3 days before TNBS, killed 3 days after TNBS, TNBS only 3.1±0.3) turned out to be 1.8±0.7. Besides, the “histological score (Ameho criteria, scale 0 to 6)” value in the data set on TNBS-induced colitis (intraperitoneally once daily, TNBS only 3.7±1) was 2.5±0.8. Besides, in the data set with TNBS-induced colitis (vs TNBS only), the “decrease in colitis macroscopic scores” value is 42% and the “decrease of MPO activity” value turned out to be 34%. In addition, the “functional character at the CB2 receptor (agonist / inverse agonist)” value on hCB2 receptor (CB2 functional activity assay) was “agonists”. Further, the Emax on hCB2 receptor (setting [2]) was greater than 135%. Besides, a half-maximal response on hCB2 receptor (EC50) required 5.5 ± 1.1 nM. Besides, the Emax at hCB2 receptor (setting [3]) amounted to 148 ± 2%. This compound registered a Ki in data set [1] (binding affinity (Ki) at the CB2 receptor) of less than 500 nM. Moreover, in data set [1] (setting [4]), the Ki is 20 ± 3 nM.

As for `CCCCCn1cc(C(=O)N[C@H]2CCCc3ccccc32)c(=O)cc1-c1ccccc1` [Compound 16, (S)-4-oxo-1-pentyl-6-phenyl-N-3-(1-(1,2,3,4-tetrahydronaphthyl))-1,4-dihydropyridine-3-carboxamide], the melting point was found to be 139 °C. Besides, the “functional character at the CB2 receptor (agonist / inverse agonist)” value on hCB2 receptor (CB2 functional activity assay) was “inverse agonists”. Moreover, the Emax at hCB2 receptor (setting [2]) is less than 62%. The compound also yielded an EC50 at hCB2 receptor of 60 ± 16 nM. For the same compound, at hCB2 receptor (setting [3]), the Emax was 48 ± 3%. In addition, in data set [1] (setting [4]), the Ki came out at 369 ± 41 nM.
